Structures are written as SMILES.

Series [1] has as its system Rattus norvegicus. Description: Anti-inflammatory activity in Rattus norvegicus Wistar (rat) assessed as inhibition of carrageenan-induced edema volume at 69.6 mg/kg, po measured after 30 min. The class given is functional. The conditions noted are these: 0.5 h. For orientation: In the carrageenan paw model, swelling and tenderness develop within hours.
For series [2], the system named is Rattus norvegicus. Description: Anti-inflammatory activity in Rattus norvegicus Wistar (rat) assessed as inhibition of carrageenan-induced edema volume at 69.6 mg/kg, po measured after 90 min. The class given is functional. The conditions noted are these: 1.5 h.
In series [3] the test system is Rattus norvegicus. Description: Anti-inflammatory activity in Rattus norvegicus Wistar (rat) assessed as inhibition of carrageenan-induced edema volume at 69.6 mg/kg, po measured after 60 min. The class given is functional. The conditions noted are these: 1 h.
Series [4] relates to Rattus norvegicus. Description: Anti-inflammatory activity in Rattus norvegicus Wistar (rat) assessed as inhibition of carrageenan-induced edema volume at 69.6 mg/kg, po measured after 120 min. The class given is functional. To be noted: 2 h.
The test system of series [5] is Mus musculus. Description: Analgesic activity in Mus musculus (mouse) assessed as inhibition of acetic acid-induced writhing at 69.6 mg/kg, po pretreated 1 hr before acetic acid challenge. The class given is functional. On the technique in general: An intraperitoneal irritant provokes the stretching counted in writhing tests.
The subject of series [6] is Mus musculus. Description: Analgesic activity in Mus musculus (mouse) assessed as inhibition of acetic acid-induced writhing at 68.9 mg/kg, po pretreated 1 hr before acetic acid challenge. The class given is functional.
In series [7] the test system is Rattus norvegicus. Description: Anti-inflammatory activity in Rattus norvegicus Wistar (rat) assessed as inhibition of carrageenan-induced edema volume at 68.9 mg/kg, po measured after 120 min. The class given is functional. The conditions noted are these: 2 h.
The subject of series [8] is Rattus norvegicus. Description: Anti-inflammatory activity in Rattus norvegicus Wistar (rat) assessed as inhibition of carrageenan-induced edema volume at 68.9 mg/kg, po measured after 60 min. The class given is functional. To be noted: 1 h.
Series [9] deals with Rattus norvegicus. Description: Anti-inflammatory activity in Rattus norvegicus Wistar (rat) assessed as inhibition of carrageenan-induced edema volume at 68.9 mg/kg, po measured after 30 min. The class given is functional. To be noted: 0.5 h.
In series [10] the test system is Rattus norvegicus. Description: Anti-inflammatory activity in Rattus norvegicus Wistar (rat) assessed as inhibition of carrageenan-induced edema volume at 68.9 mg/kg, po measured after 90 min. The class given is functional. The conditions noted are these: 1.5 h.
In series [11] the test system is Rattus norvegicus. Description: Anti-inflammatory activity in Rattus norvegicus Wistar (rat) assessed as inhibition of carrageenan-induced edema volume at 67.0 mg/kg, po measured after 60 min. The class given is functional. The conditions noted are these: 1 h.
Series [12] relates to Rattus norvegicus. Description: Anti-inflammatory activity in Rattus norvegicus Wistar (rat) assessed as inhibition of carrageenan-induced edema volume at 67.0 mg/kg, po measured after 90 min. The class given is functional. To be noted: 1.5 h.
Series [13] relates to Mus musculus. Description: Analgesic activity in Mus musculus (mouse) assessed as inhibition of acetic acid-induced writhing at 67 mg/kg, po pretreated 1 hr before acetic acid challenge. The class given is functional.
Series [14] has as its system Rattus norvegicus. Description: Anti-inflammatory activity in Rattus norvegicus Wistar (rat) assessed as inhibition of carrageenan-induced edema volume at 67.0 mg/kg, po measured after 30 min. The class given is functional. To be noted: 0.5 h.
The test system of series [15] is Rattus norvegicus. Description: Anti-inflammatory activity in Rattus norvegicus Wistar (rat) assessed as inhibition of carrageenan-induced edema volume at 67.0 mg/kg, po measured after 120 min. The class given is functional. The conditions noted are these: 2 h.
Series [16] relates to Rattus norvegicus. Description: Anti-inflammatory activity in Rattus norvegicus Wistar (rat) assessed as inhibition of carrageenan-induced edema volume at 66.2 mg/kg, po measured after 30 min. The class given is functional. The conditions noted are these: 0.5 h.
Series [17] relates to Rattus norvegicus. Description: Anti-inflammatory activity in Rattus norvegicus Wistar (rat) assessed as inhibition of carrageenan-induced edema volume at 66.2 mg/kg, po measured after 90 min. The class given is functional. The conditions noted are these: 1.5 h.
In series [18] the test system is Rattus norvegicus. Description: Anti-inflammatory activity in Rattus norvegicus Wistar (rat) assessed as inhibition of carrageenan-induced edema volume at 66.2 mg/kg, po measured after 120 min. The class given is functional. The conditions noted are these: 2 h.
The subject of series [19] is Rattus norvegicus. Description: Anti-inflammatory activity in Rattus norvegicus Wistar (rat) assessed as inhibition of carrageenan-induced edema volume at 66.2 mg/kg, po measured after 60 min. The class given is functional. The conditions noted are these: 1 h.
Series [20] concerns Mus musculus. Description: Analgesic activity in Mus musculus (mouse) assessed as inhibition of acetic acid-induced writhing at 66.2 mg/kg, po pretreated 1 hr before acetic acid challenge. The class given is functional.
Series [21] relates to Rattus norvegicus. Description: Anti-inflammatory activity in Rattus norvegicus Wistar (rat) assessed as inhibition of carrageenan-induced edema volume at 71.9 mg/kg, po measured after 90 min. The class given is functional. The conditions noted are these: 1.5 h.
For series [22], the system named is Rattus norvegicus. Description: Anti-inflammatory activity in Rattus norvegicus Wistar (rat) assessed as inhibition of carrageenan-induced edema volume at 71.9 mg/kg, po measured after 60 min. The class given is functional. To be noted: 1 h.
Series [23] can be described thus: Prodrug conversion in phosphate buffer assessed as half-life for hydrolysis at pH 7.4. The class given is physicochemical.
Series [24] concerns Mus musculus. Description: Analgesic activity in Mus musculus (mouse) assessed as inhibition of acetic acid-induced writhing at 71.9 mg/kg, po pretreated 1 hr before acetic acid challenge. The class given is functional.
The subject of series [25] is Rattus norvegicus. Description: Anti-inflammatory activity in Rattus norvegicus Wistar (rat) assessed as inhibition of carrageenan-induced edema volume at 71.9 mg/kg, po measured after 120 min. The class given is functional. To be noted: 2 h.
Series [26] can be described thus: Prodrug conversion in acetate buffer assessed as half-life for hydrolysis at pH 3. The class given is physicochemical.
Series [27] in a line: Prodrug conversion in acetate buffer assessed as half-life for hydrolysis at pH 4. The class given is physicochemical.
Series [28] can be described thus: Prodrug conversion in acetate buffer assessed as half-life for hydrolysis at pH 5. The class given is physicochemical.
Series [29] deals with Rattus norvegicus. Description: Anti-inflammatory activity in Rattus norvegicus Wistar (rat) assessed as inhibition of carrageenan-induced edema volume at 71.9 mg/kg, po measured after 30 min. The class given is functional. The conditions noted are these: 0.5 h.

One may read the inhibition in vivo as the drop in the measured response relative to a control, in per cent. For `COc1ccc2cc(C(C)C(=O)OCC(OC(C)=O)C(OC(C)=O)C(OC(C)=O)C(/C=N/[C@@H](Cc3ccc(O)c(O)c3)C(=O)O)OC(C)=O)ccc2c1` (some centres undefined), the inhibition in vivo at 69.6 mg/kg in the series with Rattus norvegicus [1] stood at 44%; in the series with Rattus norvegicus [2] it was 50%; in the series on Rattus norvegicus [3], 41%; in the series on Rattus norvegicus [4] it was 73%; with Mus musculus [5], 92.3%.

As to `COc1ccc2cc(C(C)C(=O)OCC(OC(C)=O)C(OC(C)=O)C(OC(C)=O)C(/C=N/[C@@H](CCC(=O)O)C(=O)O)OC(C)=O)ccc2c1` (some centres undefined), the inhibition in vivo at 68.9 mg/kg stood at 64.1% in the series with Mus musculus [6]; 66% in the series with Rattus norvegicus [7]; 32% with Rattus norvegicus [8]; 32% with Rattus norvegicus [9]; 53% in the series on Rattus norvegicus [10].

Regarding `COc1ccc2cc(C(C)C(=O)OCC(OC(C)=O)C(OC(C)=O)C(OC(C)=O)C(/C=N/[C@@H](Cc3cnc[nH]3)C(=O)O)OC(C)=O)ccc2c1` (some centres undefined), the inhibition in vivo at 67 mg/kg is 13% with Rattus norvegicus [11]; 39% in the series with Rattus norvegicus [12]; 65.9% in the series on Mus musculus [13]; 26% in the series with Rattus norvegicus [14]; 58% with Rattus norvegicus [15].

Turning to `COc1ccc2cc(C(C)C(=O)OCC(OC(C)=O)C(OC(C)=O)C(OC(C)=O)C(/C=N/[C@H](C(=O)O)[C@@H](C)O)OC(C)=O)ccc2c1` (some centres undefined), the inhibition in vivo at 66.2 mg/kg with Rattus norvegicus [16] is 18%; in the series on Rattus norvegicus [17], 39%; in the series on Rattus norvegicus [18], 58%; with Rattus norvegicus [19] it was 24%; in the series on Mus musculus [20], 60.4%.

Regarding `COc1ccc2cc(C(C)C(=O)OCC(OC(C)=O)C(OC(C)=O)C(OC(C)=O)C(/C=N/[C@@H](Cc3c[nH]c4ccccc34)C(=O)O)OC(C)=O)ccc2c1` (some centres undefined), the inhibition in vivo at 71.9 mg/kg with Rattus norvegicus [21] is 36%; in the series on Rattus norvegicus [22] it was 16%; in the series on Mus musculus [24], 73.7%; with Rattus norvegicus [25] it was 70%; in the series with Rattus norvegicus [29], 18%. Also, the t1/2 in series [23] amounted to 18 h; in [26], 88 h; in series [27], 115 h; in [28], 57 h.

Values taken from ChEMBL document CHEMBL3045532, “Synthesis and evaluation of novel prodrugs of naproxen” (Med Chem Res, 2011).
